Laboratory results from patent US20130084329A1, “COMPOSITIONS FOR EXTERNAL APPLICATION, CONTAINING ADENOSYLCOBALAMIN FOR IMPROVEMENT OF SKIN DISEASES” (HANALL BIOPHARMA CO., LTD., priority 2005, published 2013).
“And” between values parts separate entries of the source, which are not always exact repeats. Identical values can stand only once.

Test system: CD4+ T cell (C57BL/6) co-cultured with dendritic cell (BALB/C)
Experiment: Inhibition test of T-cell proliferation, 1 way mixed lymphocyte reaction (MLR), H3-thymidine incorporation
Assay type: cell-based, mouse
Conditions: for % of inhibition = [cpm (untreated) - cpm(treated)] / cpm (untreated): T cell proliferation, from photo-nonexposed CPM
From the text: It is typically known that the increase of CD4^+ T cells is observed in atopic dermatitis lesion, and cytokines secreted from CD4^+ T cells make the condition of atopic dermatitis worse (DirkJan Hijnen et al., J Invest Dermatol 125:1149-1155, 2005). Therefore, we tried to determine the therapeutic effectiveness of cobalamin derivatives for treatment of atopic dermatitis by examining the changes of T-cell proliferation before and after photolysis of cobalamin derivatives.
When the T cell separated from one mouse strain and the dendritic cell (DC, antigen presenting cell) separated from another mouse strain are mixed together, the immune response by the T cell occurs. This immune response is a tissue incompatibility reaction due to the difference of the genes of MHC molecules of the two strains.
In this experiment, the target cell (DC) derived from BALB/C strain and the CD4^+ T cell (the responder) derived from C57BL/6 (B6) strain are mixed and co-cultured to induce a 1 way MLR. In this process, several types of cobalamin derivatives (cyanocobalamin, hydroxocobalamin, methylcobalamin, adenosylcobalamin) are treated, and then the intensities of the immune response are measured by comparing the T cell proliferation for each of the cobalamin derivative-treated group.
1) Bone marrow derived dendritic cells were isolated from 8 weeks BALB/c mouse as follows.
2) The femur and tibiae were separated from a mouse, and then soaked in PBS. The muscle tissues were removed from them. Then, the bones were soaked in 70% EtOH for 2 minutes for sterilization, and then EtOH was washed off with PBS.
3) A needle of a 10 ml syringe filled with PBS was inserted into ends of the bones and then PBS was injected into the bones to isolate the bone marrow.
4) The obtained bone marrow was made into a single cell suspension by pipetting.
5) 1˜1.5×10^7 of leukocytes were isolated per one femur or one tibia.
6) Culture medium was prepared (RPMI-1640+Penicillin/Streptomycin, L-Glutamin, 2-MercaptoEtOH, 10% Fetal Bovine Serum, Recombinant mouse GM-CSF). 2×10^6 of BM leukocytes were plated onto 100 mm Petri dish with 10 ml of the culture medium. At this time, […] (in case of 20 ng/ml, 5×10^6 U/mg) of rmGM-CSF was added. (Day 0)
7) Day 3, 10 ml of culture medium (including 200 U/ml GM-CSF) was added.
8) Day 6, culture medium replacement: 10 ml of culture medium from the culture plate was taken, and then centrifuged. The obtained cells were released in a fresh medium containing GM-CSF 200 U/ml, and then they were put back into the original culture plate. Through this process, half of the entire culture medium could be changed to a new medium.
9) Day 8, culture medium replacement: Half of the culture medium was replaced in the same way as day 6.
10) Day 9, after collecting BM-DCs by pipetting carefully, and centrifuging at 300 g/RT/5 min, they were poured into 10 ml of fresh culture medium. The BM-DCs were plated on 100 mm tissue culture plate. 100 U/ml of rmGM-CSF and 1 μg/ml of LPS were added to the culture medium. The BM-DCs were fully maturated by culturing for an extra day.
1) The spleen was separated out from C57BL/6 mouse, and was ground by using the nylon mesh in PBS and then centrifuged at 300×g for 4 min.
2) The obtained cell pellet was treated with 5 ml of ACK RBC lysing solution for 5 minutes in RT, and then washed with PBS.
3) After resuspending the cells in 500 μl of MACs buffer (PBS+EDTA/BSA), the cells were stained with 50 μl of anti-CD4 microbead. Then, the CD4^+ T cell (1×10^7 cells) were separated from the cells according to the manual of MACS kit (Miltenyi Company).
1) The experiment for determining MLR response was designed to comprise control group, photo-exposed group, and photo-nonexposed group as follows. Each group was tested in triplicate according to concentration and substance on 3 wells. […]

[1] = 10 μM (lowest concentration), 10 µM
[2] = 500 μM (highest concentration), 500 µM

Row | Compound | % of inhibition = [cpm (untreated) - cpm(treated)] / cpm (untreated) [1] | % of inhibition = [cpm (untreated) - cpm(treated)] / cpm (untreated) (30 μM) | % of inhibition = [cpm (untreated) - cpm(treated)] / cpm (untreated) (100 μM) | % of inhibition = [cpm (untreated) - cpm(treated)] / cpm (untreated) [2] | radioactivity (CPM), single wells of triplicate (photo-nonexposed group, 10 μm) | radioactivity (CPM), single wells of triplicate (photo-nonexposed group, 30 μm) | radioactivity (CPM), single wells of triplicate (photo-nonexposed group, 500 μm) | radioactivity (CPM), single wells of triplicate (photo-nonexposed group, 100 μm) | further results
1 | C/C1=C2/[N-][C@H]([C@H](CC(N)=O)[C@@]2(C)CCC(=O)NC[C@@H](C)OP(=O)([O-])O[C@H]2[C@@H](O)[C@@H](n3cnc4cc(C)c(C)cc43)O[C@@H]2CO)[C@]2(C)N=C(/C(C)=C3N=C(/C=C4N=C1[C@@H](CCC(N)=O)C\4(C)C)[C@@H](CCC(N)=O)[C@]\3(C)CC(N)=O)[C@@H](CCC(N)=O)[C@]2(C)CC(N)=O.[CH2-][C@H]1O[C@@H](n2cnc3c(N)ncnc32)[C@H](O)[C@@H]1O.[Co] [A-co, adenosylcobalamin] | 57.9% and 58.03% and 60.21% | 66.99% and 77.79% and 83.85% | 89.85% and 91.31% and 95.18% | 96.51% and 97.48% and 98.07% | 19094 CPM and 19033 CPM and 18047 CPM | 14064 CPM and 10071 CPM and 7326 CPM | 1585 CPM and 1141 CPM and 875 CPM | – | radioactivity (CPM), single wells of triplicate (photo-exposed group (under the light for 1 hr before treatment), 3 μM, listed as Photo-A-co): 26305 CPM and 14772 CPM and 24306 CPM; radioactivity (CPM), single wells of triplicate (photo-exposed group (under the light for 1 hr before treatment), 10 μM, listed as Photo-A-co): 2225 CPM and 3123 CPM and 1922 CPM; radioactivity (CPM), single wells of triplicate (photo-exposed group (under the light for 1 hr before treatment), 30 μM, listed as Photo-A-co): 997 CPM and 1091 CPM and 1391 CPM; radioactivity (CPM), single wells of triplicate (photo-exposed group (under the light for 1 hr before treatment), 100 μM, listed as Photo-A-co): 696 CPM and 1259 CPM and 1333 CPM
2 | C/C1=C2/[N-][C@H]([C@H](CC(N)=O)[C@@]2(C)CCC(=O)NC[C@@H](C)OP(=O)([O-])O[C@H]2[C@@H](O)[C@@H](n3cnc4cc(C)c(C)cc43)O[C@@H]2CO)[C@]2(C)N=C(/C(C)=C3N=C(/C=C4N=C1[C@@H](CCC(N)=O)C\4(C)C)[C@@H](CCC(N)=O)[C@]\3(C)CC(N)=O)[C@@H](CCC(N)=O)[C@]2(C)CC(N)=O.[Co+3].[OH-] [H-co, hydroxocobalamin] | – | 25.76% and 23.13% and 24.28% | 37.0706% and 42.13% and 34.41% | 67.35% and 75.19% and 70.9% | 41967 CPM and 33493 CPM and 38243 CPM | 33669 CPM and 34662 CPM and 34340 CPM | 14806 CPM and 11254 CPM and 13198 CPM | 28541 CPM and 26247 CPM and 29747 CPM | radioactivity (CPM), single wells of triplicate (photo-exposed group (under the light for 1 hr before treatment), 3 μM, listed as Photo-H-co): 52932 CPM and 46313 CPM and 40358 CPM; radioactivity (CPM), single wells of triplicate (photo-exposed group (under the light for 1 hr before treatment), 10 μM, listed as Photo-H-co): 42615 CPM and 39452 CPM and 33765 CPM; radioactivity (CPM), single wells of triplicate (photo-exposed group (under the light for 1 hr before treatment), 30 μM, listed as Photo-H-co): 34824 CPM and 37105 CPM and 32225 CPM; radioactivity (CPM), single wells of triplicate (photo-exposed group (under the light for 1 hr before treatment), 100 μM, listed as Photo-H-co): 37189 CPM and 23765 CPM and 30994 CPM
3 | C/C1=C2/[N-][C@H]([C@H](CC(N)=O)[C@@]2(C)CCC(=O)NC[C@H](C)OP(=O)([O-])O[C@H]2[C@@H](O)[C@@H](n3cnc4cc(C)c(C)cc43)O[C@@H]2CO)[C@]2(C)N=C(/C(C)=C3N=C(/C=C4N=C1[C@@H](CCC(N)=O)C\4(C)C)[C@@H](CCC(N)=O)[C@]\3(C)CC(N)=O)[C@@H](CCC(N)=O)[C@]2(C)CC(N)=O.[CH3-].[Co+3] [M-co, methylcobalamin] | – | – | – | 49.98% and 36.23% and 45.1184% | 37594 CPM and 43624 CPM and 44951 CPM | 36641 CPM and 28896 CPM and 40298 CPM | 22687 CPM and 28924 CPM and 24891 CPM | 37066 CPM and 30678 CPM and 39514 CPM | radioactivity (CPM), single wells of triplicate (photo-exposed group (under the light for 1 hr before treatment), 3 μM, listed as Photo-M-co): 33467 CPM and 32885 CPM and 50368 CPM; radioactivity (CPM), single wells of triplicate (photo-exposed group (under the light for 1 hr before treatment), 10 μM, listed as Photo-M-co): 42973 CPM and 43693 CPM and 41162 CPM; radioactivity (CPM), single wells of triplicate (photo-exposed group (under the light for 1 hr before treatment), 30 μM, listed as Photo-M-co): 18844 CPM and 28639 CPM and 29522 CPM
4 | cyanocobalamin [C-co] | 4.28% and 11.95% and 9.071% | – | – | – | 43413 CPM and 39935 CPM and 41240 CPM | 42882 CPM and 30722 CPM and 40187 CPM | 36303 CPM and 40107 CPM | 41663 CPM and 48408 CPM and 39928 CPM | radioactivity (CPM), single wells of triplicate (photo-exposed group (under the light for 1 hr before treatment), 3 μM, listed as Photo-C-co): 41161 CPM and 57338 CPM and 56253 CPM; radioactivity (CPM), single wells of triplicate (photo-exposed group (under the light for 1 hr before treatment), 10 μM, listed as Photo-C-co): 39141 CPM and 36381 CPM and 39492 CPM; radioactivity (CPM), single wells of triplicate (photo-exposed group (under the light for 1 hr before treatment), 30 μM, listed as Photo-C-co): 38702 CPM and 34451 CPM and 34078 CPM; radioactivity (CPM), single wells of triplicate (photo-exposed group (under the light for 1 hr before treatment), 100 μM, listed as Photo-C-co): 50511 CPM and 27692 CPM and 30567 CPM
